Laboratory results: publication PMC9865890, “N-Derivatives of (Z)-Methyl 3-(4-Oxo-2-thioxothiazolidin-5-ylidene)methyl)-1H-indole-2-carboxylates as Antimicrobial Agents—In Silico and In Vitro Evaluation” (Pharmaceuticals, 2023)
In brackets after ≈: the same amount, converted by molar mass. Where two headings read alike, the source gives them in different places.

What was measured:
P. ochrochloron = experiment: Antifungal bioassay (MIC/MFC); type: cell-based; details: for MIC: P.o. (P. ochrochloron; text: P. ochramensis); for MFC: P.o. (P. ochrochloron)
Experimental: (§1) For the antifungal bioassays, six fungi were used: […] The organisms were obtained from the Mycological Laboratory, Department of Plant Physiology, Institute for Biological Research “Siniša Stankovic”, Belgrade, Serbia. All experiments were performed in duplicate.

[1] = test system: Aspergillus fumigatus (ATCC 1022); experiment: Antifungal bioassay (MIC/MFC); type: cell-based; details: ATCC1022, A.f. (A. fumigatus)
Experimental: as §1

[2] = test system: Aspergillus versicolor (ATCC 11730); experiment: Antifungal bioassay (MIC/MFC); type: cell-based; details: ATCC11730, A.v. (A. versicolor)
Experimental: as §1

A. ochraceus = experiment: Antifungal bioassay (MIC/MFC); type: cell-based; details: A.o. (A. ochraceus)
Experimental: as §1

[3] = test system: Trichoderma viride (IAM 5061); experiment: Antifungal bioassay (MIC/MFC); type: cell-based; details: T.v. (T. viride)
Experimental: as §1

[4] = test system: Aspergillus niger (ATCC 6275); experiment: Antifungal bioassay (MIC/MFC); type: cell-based; details: ATCC6275, A.n. (A. niger)
Experimental: as §1

[5] = test system: Penicillium funiculosum (ATCC 36839); experiment: Antifungal bioassay (MIC/MFC); type: cell-based; details: Talaromyces funiculosus, ATCC36839; P.f. (P. funiculosum)
Experimental: as §1

[6] = test system: Penicillium verrucosum var. cyclopium (food isolate); experiment: Antifungal bioassay (MIC/MFC); type: cell-based
Experimental: For the antifungal bioassays, six fungi were used: Aspergillus niger (ATCC 6275), Aspergillus fumigatus (ATCC 1022), Aspergillus versicolor (ATCC 11730), Penicillium funiculosum (ATCC 36839), Trichoderma viride (IAM 5061), and Penicillium verrucosum var. cyclopium (food isolate). The organisms were obtained from the Mycological Laboratory, Department of Plant Physiology, Institute for Biological Research “Siniša Stankovic”, Belgrade, Serbia. All experiments were performed in duplicate.

[7] = test system: Bacillus cereus (clinical isolate); experiment: Antibacterial microdilution (MIC/MBC); type: cell-based; details: Bacillus cereus, B.c. (B. cereus); for MIC: read-out: MIC
Experimental: (§2) The synthesized compounds (Table 1) were evaluated for their antibacterial activity against a panel of eight species using a microdilution method with ampicillin and streptomycin as reference drugs. […] The order of activity can be presented as: 8 > 11 > 2 > 1 > 12 > 3 > 17 > 7 > 5 > 13 > 14 > 16 > 9 > 4 = 6 > 15 > 10. […] Cloacae. […] The most sensitive bacteria appeared to be En. cloacae, while E. coli was the most resistant one, followed by M. flavus.
(§3) The following Gram-negative bacteria: Escherichia coli (ATCC 35210), Enterobacter cloacae (clinical isolate), Salmonella typhimurium (ATCC 13311), as well as Gram-positive bacteria: Listeria monocytogenes (NCTC 7973), Bacillus cereus (clinical isolate), and Staphylococcus aureus (ATCC 6538) were used. The organisms were obtained from the Mycological Laboratory, Department of Plant Physiology, Institute for Biological Research “Siniša Stankovic”, Belgrade, Serbia. The minimum inhibitory (MIC) and minimum bactericidal (MBC) concentrations were determined by the modified microdilution method, as previously reported.

[8] = test system: Salmonella typhimurium (ATCC 13311); experiment: Antibacterial microdilution (MIC/MBC); type: cell-based; details: Salmonella enterica, S.t. (S. typhimurium); for MIC: read-out: MIC
Experimental: as §2, §3

[9] = test system: Escherichia coli (ATCC 35210); experiment: Antibacterial microdilution (MIC/MBC); type: cell-based; details: Escherichia coli, ATCC35210, E. coli; for MIC: read-out: MIC
Experimental: as §2, §3

[10] = test system: Enterobacter cloacae (clinical isolate); experiment: Antibacterial microdilution (MIC/MBC); type: cell-based; details: Enterobacter cloacae, En.cl (En. cloacae); for MIC: read-out: MIC
Experimental: as §2, §3

[11] = test system: Staphylococcus aureus (ATCC 6538); experiment: Antibacterial microdilution (MIC/MBC); type: cell-based; details: Staphylococcus aureus, ATCC6538, S.a. (S. aureus); for MIC: read-out: MIC
Experimental: as §2, §3

[12] = test system: Listeria monocytogenes (NCTC 7973); experiment: Antibacterial microdilution (MIC/MBC); type: cell-based; details: L.m. (L. monocytogenes)
Experimental: as §2, §3

M. flavus = experiment: Antibacterial microdilution (MIC/MBC); type: cell-based; details: Micrococcus flavus; M.f. (M. flavus)
Experimental: as §2, §3

P. aeruginosa = experiment: Antibacterial microdilution (MIC/MBC); type: cell-based; details: Pseudomonas aeruginosa, P.a. (P. aeruginosa); for MIC: read-out: MIC
Experimental: as §2, §3

[13] = Penicillium ochrochloron, read-out: MIC
[14] = Aspergillus ochraceus, read-out: MIC
[15] = Trichoderma viride, IAM5061, read-out: MIC
[16] = Listeria monocytogenes, NCTC7973
[17] = Listeria monocytogenes, NCTC7973, read-out: MIC

COC(=O)c1[nH]c2ccc(F)cc2c1/C=C1\SC(=S)N(c2ccc(O)cc2)C1=O [Compound 10, (Z)-methyl 5-fluoro-3-((3-(4-hydroxyphenyl)-4-oxo-2-thioxothiazolidin-5-ylidene)methyl)-1H-indole-2-carboxylate]
melting point: 267 to 268 °C
MIC (P. ochrochloron): 8 ± 0.6 µg/mL (≈ 18.7 µM)
MFC (P. ochrochloron; Penicillium ochrochloron): 15 ± 3 µg/mL (≈ 35 µM)
MIC (P. ochrochloron; [13]): 8 µg/mL (≈ 18.7 µM)
MFC [1]: 120 ± 40 µg/mL (≈ 280 µM)
MIC [1]: 60 ± 6 µg/mL (≈ 140 µM)
MFC [2]: 15 ± 3 µg/mL (≈ 35 µM)
MIC [2]: 8 ± 0.6 µg/mL (≈ 18.7 µM)
MIC (A. ochraceus): 4 ± 1 µg/mL (≈ 9.34 µM)
MFC (A. ochraceus; Aspergillus ochraceus): 8 ± 0.6 µg/mL (≈ 18.7 µM)
MIC (A. ochraceus; [14]): 4 µg/mL (≈ 9.34 µM)
MIC [3]: 4 ± 1 µg/mL (≈ 9.34 µM)
MFC ([3]; Trichoderma viride, IAM5061): 8 ± 0.6 µg/mL (≈ 18.7 µM)
MIC [3, 15]: 4 µg/mL (≈ 9.34 µM)
MFC [4]: 15 ± 3 µg/mL (≈ 35 µM)
MIC [4]: 8 ± 0.6 µg/mL (≈ 18.7 µM)
MFC [5]: 15 ± 3 µg/mL (≈ 35 µM)
MIC [5]: 8 ± 0.6 µg/mL (≈ 18.7 µM)
MFC [6]: 30 ± 10 µg/mL (≈ 70 µM)
MIC [6]: 15 ± 3 µg/mL (≈ 35 µM)
MBC [7]: 60 ± 6 µg/mL (≈ 140 µM)
MIC [7]: 30 ± 10 µg/mL (≈ 70 µM)
MBC [8]: 60 ± 6 µg/mL (≈ 140 µM)
MIC [8]: 45 ± 3 µg/mL (≈ 105 µM)
MBC [9]: 60 ± 6 µg/mL (≈ 140 µM)
MIC [9]: 30 ± 10 µg/mL (≈ 70 µM)
MBC [10]: 60 ± 6 µg/mL (≈ 140 µM)
MIC [10]: 30 ± 10 µg/mL (≈ 70 µM)
MBC [11]: 60 ± 6 µg/mL (≈ 140 µM)
MIC [11]: 30 ± 10 µg/mL (≈ 70 µM)
MBC [12, 16]: 60 ± 6 µg/mL (≈ 140 µM)
MIC [12, 17]: 30 ± 10 µg/mL (≈ 70 µM)
MBC (M. flavus): 60 ± 6 µg/mL (≈ 140 µM)
MIC (M. flavus): 45 ± 3 µg/mL (≈ 105 µM)
MBC (P. aeruginosa): 60 ± 6 µg/mL (≈ 140 µM)
MIC (P. aeruginosa): 30 ± 10 µg/mL (≈ 70 µM)

COC(=O)c1[nH]c2ccccc2c1/C=C1\SC(=S)N(C(C(=O)O)C(C)C)C1=O (centres unmarked) [Compound 12, (Z)-2-(5-((2-(methoxycarbonyl)-1H-indol-3-yl)methylene)-4-oxo-2-thioxothiazolidin-3-yl)-3-methylbutanoic acid]
melting point: 256 to 258 °C
MFC (P. ochrochloron; Penicillium ochrochloron): 30 ± 10 µg/mL (≈ 71.7 µM)
MIC (P. ochrochloron; [13]): 15 ± 3 µg/mL (≈ 35.8 µM)
MFC [1]: 120 ± 40 µg/mL (≈ 287 µM)
MIC [1]: 60 ± 6 µg/mL (≈ 143 µM)
MFC [2]: 15 ± 3 µg/mL (≈ 35.8 µM)
MIC [2]: 8 ± 0.6 µg/mL (≈ 19.1 µM)
MFC (A. ochraceus; Aspergillus ochraceus): 15 ± 3 µg/mL (≈ 35.8 µM)
MIC (A. ochraceus; [14]): 8 ± 0.6 µg/mL (≈ 19.1 µM)
MIC [3]: 8 ± 0.6 µg/mL (≈ 19.1 µM)
MFC ([3]; Trichoderma viride, IAM5061): 15 ± 3 µg/mL (≈ 35.8 µM)
MIC [3, 15]: 8 µg/mL (≈ 19.1 µM)
MFC [4]: 30 ± 10 µg/mL (≈ 71.7 µM)
MIC [4]: 22 ± 5 µg/mL (≈ 52.6 µM)
MFC [5]: 30 ± 10 µg/mL (≈ 71.7 µM)
MIC [5]: 15 ± 3 µg/mL (≈ 35.8 µM)
MFC [6]: 60 ± 6 µg/mL (≈ 143 µM)
MIC [6]: 30 ± 10 µg/mL (≈ 71.7 µM)
MBC [7]: 60 ± 6 µg/mL (≈ 143 µM)
MIC [7]: 30 ± 10 µg/mL (≈ 71.7 µM)
MBC [8]: 8 ± 9 µg/mL (≈ 19.1 µM)
MBC [9]: 30 ± 10 µg/mL (≈ 71.7 µM)
MBC [10]: 60 ± 6 µg/mL (≈ 143 µM)
MIC [10]: 15 µg/mL (≈ 35.8 µM)
MBC [11]: 60 ± 6 µg/mL (≈ 143 µM)
MIC [11]: 30 ± 10 µg/mL (≈ 71.7 µM)
MIC [12]: 15 ± 1 µg/mL (≈ 35.8 µM)
MBC [12, 16]: 30 ± 10 µg/mL (≈ 71.7 µM)
MIC [12, 17]: 15 µg/mL (≈ 35.8 µM)
MBC (M. flavus): 60 ± 6 µg/mL (≈ 143 µM)
MIC (M. flavus): 30 ± 10 µg/mL (≈ 71.7 µM)
MBC (P. aeruginosa): 30 ± 10 µg/mL (≈ 71.7 µM)
MIC (P. aeruginosa): 15 ± 9 µg/mL (≈ 35.8 µM)

COC(=O)c1[nH]c2ccc(F)cc2c1/C=C1\SC(=S)N(C)C1=O [Compound 15, (Z)-methyl 5-fluoro-3-((3-methyl-4-oxo-2-thioxothiazolidin-5-ylidene)methyl)-1H-indole-2-carboxylate]
melting point: 234 to 244 °C
MIC (P. ochrochloron): 8 ± 0.6 µg/mL (≈ 22.8 µM)
MFC (P. ochrochloron; Penicillium ochrochloron): 15 ± 3 µg/mL (≈ 42.8 µM)
MIC (P. ochrochloron; [13]): 8 µg/mL (≈ 22.8 µM)
MFC [1]: 30 ± 10 µg/mL (≈ 85.6 µM)
MIC [1]: 15 ± 3 µg/mL (≈ 42.8 µM)
MFC [2]: 15 ± 3 µg/mL (≈ 42.8 µM)
MIC [2]: 8 ± 0.6 µg/mL (≈ 22.8 µM)
MFC (A. ochraceus; Aspergillus ochraceus): 15 ± 3 µg/mL (≈ 42.8 µM)
MIC (A. ochraceus; [14]): 8 ± 0.6 µg/mL (≈ 22.8 µM)
MIC [3]: 8 ± 0.6 µg/mL (≈ 22.8 µM)
MFC ([3]; Trichoderma viride, IAM5061): 15 ± 3 µg/mL (≈ 42.8 µM)
MIC [3, 15]: 8 µg/mL (≈ 22.8 µM)
MFC [4]: 15 ± 3 µg/mL (≈ 42.8 µM)
MIC [4]: 8 ± 0.6 µg/mL (≈ 22.8 µM)
MFC [5]: 15 ± 3 µg/mL (≈ 42.8 µM)
MIC [5]: 8 ± 0.6 µg/mL (≈ 22.8 µM)
MFC [6]: 15 ± 3 µg/mL (≈ 42.8 µM)
MIC [6]: 8 ± 0.6 µg/mL (≈ 22.8 µM)
MBC [7]: 60 ± 6 µg/mL (≈ 171 µM)
MIC [7]: 30 ± 10 µg/mL (≈ 85.6 µM)
MBC [8]: 60 ± 6 µg/mL (≈ 171 µM)
MIC [8]: 45 ± 3 µg/mL (≈ 128 µM)
MBC [9]: 60 ± 6 µg/mL (≈ 171 µM)
MIC [9]: 45 ± 3 µg/mL (≈ 128 µM)
MBC [10]: 60 ± 6 µg/mL (≈ 171 µM)
MIC [10]: 30 ± 10 µg/mL (≈ 85.6 µM)
MBC [11]: 30 ± 10 µg/mL (≈ 85.6 µM)
MIC [11]: 22 ± 5 µg/mL (≈ 62.8 µM)
MBC [12, 16]: 60 ± 6 µg/mL (≈ 171 µM)
MIC [12, 17]: 45 ± 3 µg/mL (≈ 128 µM)
MBC (M. flavus): 60 ± 6 µg/mL (≈ 171 µM)
MIC (M. flavus): 45 ± 3 µg/mL (≈ 128 µM)
MBC (P. aeruginosa): 60 ± 6 µg/mL (≈ 171 µM)
MIC (P. aeruginosa): 30 ± 10 µg/mL (≈ 85.6 µM)
